Measurements published in ChEMBL document CHEMBL6115000, “Discovery of a first-in-class PROTAC degrader of histone lysine demethylase KDM4” (Eur J Med Chem, 2025).
Calls of active or inactive are those of the source. No cut-off for these calls is given here.

Key:
[1] = biological target: T1, von Hippel-Lindau disease tumor suppressor/Lysine-specific demethylase 4A (Homo sapiens, UniProt O75164+P40337); assay: PROTAC activity at VHL/KDM4A in human KYSE-150 cells assessed as induction of KDM4A degradation at 0.1 uM incubated for 12 hrs by Western blot analysis relative to control; assay type: cell-based; details: KYSE-150 cell line
Target sequence in this assay (O75164 2-1064 limits assumed): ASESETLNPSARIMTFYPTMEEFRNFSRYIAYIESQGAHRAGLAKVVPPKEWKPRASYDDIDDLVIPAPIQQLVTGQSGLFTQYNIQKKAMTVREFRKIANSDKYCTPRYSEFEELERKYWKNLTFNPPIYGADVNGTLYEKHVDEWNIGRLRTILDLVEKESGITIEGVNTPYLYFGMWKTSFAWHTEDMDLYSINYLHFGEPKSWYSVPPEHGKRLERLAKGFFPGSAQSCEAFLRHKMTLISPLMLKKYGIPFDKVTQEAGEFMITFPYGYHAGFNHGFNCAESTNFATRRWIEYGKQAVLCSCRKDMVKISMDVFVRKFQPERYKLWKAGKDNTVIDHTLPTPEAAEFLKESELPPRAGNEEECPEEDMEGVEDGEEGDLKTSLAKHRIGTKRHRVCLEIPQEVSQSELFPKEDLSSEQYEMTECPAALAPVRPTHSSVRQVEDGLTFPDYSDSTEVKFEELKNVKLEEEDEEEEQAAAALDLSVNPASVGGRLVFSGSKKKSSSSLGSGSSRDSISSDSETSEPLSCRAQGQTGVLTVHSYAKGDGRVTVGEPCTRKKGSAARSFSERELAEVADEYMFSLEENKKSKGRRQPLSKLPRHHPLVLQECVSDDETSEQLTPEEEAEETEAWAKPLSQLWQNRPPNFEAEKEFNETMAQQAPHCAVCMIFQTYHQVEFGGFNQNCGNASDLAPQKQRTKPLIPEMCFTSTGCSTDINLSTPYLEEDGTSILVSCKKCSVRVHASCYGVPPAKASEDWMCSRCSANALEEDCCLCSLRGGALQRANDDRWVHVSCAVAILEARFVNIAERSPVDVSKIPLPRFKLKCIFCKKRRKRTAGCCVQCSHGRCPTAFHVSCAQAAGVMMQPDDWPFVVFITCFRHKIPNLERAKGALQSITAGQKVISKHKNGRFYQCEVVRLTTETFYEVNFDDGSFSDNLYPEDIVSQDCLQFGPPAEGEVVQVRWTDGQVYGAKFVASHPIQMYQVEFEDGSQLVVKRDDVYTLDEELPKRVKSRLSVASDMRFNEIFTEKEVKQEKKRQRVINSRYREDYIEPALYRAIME
Target sequence in this assay (P40337 whole entry partner): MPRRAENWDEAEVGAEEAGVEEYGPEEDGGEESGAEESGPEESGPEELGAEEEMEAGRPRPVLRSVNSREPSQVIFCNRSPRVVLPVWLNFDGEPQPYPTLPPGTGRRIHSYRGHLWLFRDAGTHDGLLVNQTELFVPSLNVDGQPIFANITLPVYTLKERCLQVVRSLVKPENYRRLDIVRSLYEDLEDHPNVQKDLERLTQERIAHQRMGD

[2] = Induction of cell cycle arrest in human KYSE-150 cells assessed as accumulation of cells at S pahse at 333.3 nM incubated for 24 hrs by flow cytometry (reference value: 13.15 %); assay type: functional
[3] = Induction of cell cycle arrest in human KYSE-150 cells assessed as accumulation of cells at S pahse at 1000 nM incubated for 24 hrs by flow cytometry (reference value: 13.15 %); assay type: functional
[4] = Induction of cell cycle arrest in human KYSE-150 cells assessed as accumulation of cells at G2/M phase at 37 nM incubated for 24 hrs by flow cytometry (reference value: 21.64 %); assay type: functional
[5] = biological target: T1, von Hippel-Lindau disease tumor suppressor/Lysine-specific demethylase 4A; assay: PROTAC activity at VHL/KDM4A in human KYSE-150 cells assessed as induction of KDM4A degradation upto 1000 nM by Western blot analysis; assay type: cell-based; details: KYSE-150 cell line
Target sequence in this assay (O75164 2-1064 limits assumed): as the sequence (O75164 2-1064 limits assumed) above
Target sequence in this assay (P40337 whole entry partner): as the sequence (P40337 whole entry partner) above

[6] = biological target: T1, von Hippel-Lindau disease tumor suppressor/Lysine-specific demethylase 4A; assay: PROTAC activity at VHL/KDM4A in human KYSE-150 cells assessed as increase in H3K36me3 level incubated for 24 hrs by Western blot analysis; assay type: cell-based; details: KYSE-150 cell line, dose <= 1000.0 nM
Target sequence in this assay (O75164 2-1064 limits assumed): as the sequence (O75164 2-1064 limits assumed) above
Target sequence in this assay (P40337 whole entry partner): as the sequence (P40337 whole entry partner) above

[7] = Induction of apoptosis in human KYSE-150 cells assessed as viable cells at 37 nM incubated for 72 hrs by Annexin V-PE/7-AAD staining based flow cytometry (reference value: 84.47 %); assay type: functional; details: read-out: Activity
[8] = Induction of apoptosis in human KYSE-150 cells assessed as early apoptotic cells at 333.3 nM incubated for 72 hrs by Annexin V-PE/7-AAD staining based flow cytometry (reference value: 5.27 %); assay type: functional
[9] = Induction of apoptosis in human KYSE-150 cells assessed as necrotic cells at 333.3 nM incubated for 72 hrs by Annexin V-PE/7-AAD staining based flow cytometry (reference value: 4.28 %); assay type: functional
[10] = biological target: T2, von Hippel-Lindau disease tumor suppressor/Lysine-specific demethylase 4C (Homo sapiens, UniProt Q9H3R0+P40337); assay: PROTAC activity at VHL/KDM4C in human KYSE-150 cells assessed as induction of KDM4C degradation measured after 24 hrs by Western blot analysis; assay type: cell-based
[11] = biological target: T3, von Hippel-Lindau disease tumor suppressor/Lysine-specific demethylase 4B (Homo sapiens, UniProt P40337+O94953); assay: PROTAC activity at VHL/KDM4B in human KYSE-150 cells assessed as induction of KDM4B degradation upto 1000 nM by Western blot analysis; assay type: cell-based; details: KYSE-150 cell line
Target sequence in this assay (O94953 whole entry, looked up): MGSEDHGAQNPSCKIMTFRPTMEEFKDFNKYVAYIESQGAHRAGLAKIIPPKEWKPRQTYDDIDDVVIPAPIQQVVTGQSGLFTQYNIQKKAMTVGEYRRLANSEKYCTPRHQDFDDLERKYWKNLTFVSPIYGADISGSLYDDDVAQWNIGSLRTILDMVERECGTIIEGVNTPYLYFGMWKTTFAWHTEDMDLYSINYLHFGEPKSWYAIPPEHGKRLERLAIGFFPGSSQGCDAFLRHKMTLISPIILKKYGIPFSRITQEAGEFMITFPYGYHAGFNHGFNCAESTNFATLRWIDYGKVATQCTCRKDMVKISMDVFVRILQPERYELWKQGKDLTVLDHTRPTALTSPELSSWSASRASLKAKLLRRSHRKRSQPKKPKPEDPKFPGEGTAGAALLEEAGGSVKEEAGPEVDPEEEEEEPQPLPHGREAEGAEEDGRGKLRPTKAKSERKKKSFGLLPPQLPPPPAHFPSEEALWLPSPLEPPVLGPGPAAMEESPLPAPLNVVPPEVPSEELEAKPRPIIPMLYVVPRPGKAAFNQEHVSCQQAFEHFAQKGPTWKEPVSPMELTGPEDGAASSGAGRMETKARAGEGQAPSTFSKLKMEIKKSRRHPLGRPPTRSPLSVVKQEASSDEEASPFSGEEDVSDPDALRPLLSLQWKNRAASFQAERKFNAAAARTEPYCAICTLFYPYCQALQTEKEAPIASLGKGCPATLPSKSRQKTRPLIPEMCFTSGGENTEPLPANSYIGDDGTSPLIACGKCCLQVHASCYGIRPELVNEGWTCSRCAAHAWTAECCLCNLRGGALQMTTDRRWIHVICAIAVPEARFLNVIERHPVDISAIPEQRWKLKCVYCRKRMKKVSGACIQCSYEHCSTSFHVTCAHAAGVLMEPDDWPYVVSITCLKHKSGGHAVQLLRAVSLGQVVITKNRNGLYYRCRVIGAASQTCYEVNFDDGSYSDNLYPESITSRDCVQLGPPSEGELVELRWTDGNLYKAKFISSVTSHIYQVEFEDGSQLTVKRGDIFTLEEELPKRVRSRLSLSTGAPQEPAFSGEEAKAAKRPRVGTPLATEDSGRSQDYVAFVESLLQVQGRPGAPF
Target sequence in this assay (P40337 whole entry, looked up): as the sequence (P40337 whole entry partner) above

[12] = Induction of cell cycle arrest in human KYSE-150 cells assessed as accumulation of cells at S pahse at 12.3 nM incubated for 24 hrs by flow cytometry (reference value: 13.15 %); assay type: functional
[13] = Induction of apoptosis in human KYSE-150 cells assessed as early apoptotic cells at 37 nM incubated for 72 hrs by Annexin V-PE/7-AAD staining based flow cytometry (reference value: 5.27 %); assay type: functional
[14] = Induction of cell cycle arrest in human KYSE-150 cells assessed as accumulation of cells at G2/M phase at 333.3 nM incubated for 24 hrs by flow cytometry (reference value: 21.64 %); assay type: functional
[15] = Induction of apoptosis in human KYSE-150 cells assessed as early apoptotic cells at 111.1 nM incubated for 72 hrs by Annexin V-PE/7-AAD staining based flow cytometry (reference value: 5.27 %); assay type: functional
[16] = biological target: T1, von Hippel-Lindau disease tumor suppressor/Lysine-specific demethylase 4A; assay: PROTAC activity at VHL/KDM4A in human KYSE-150 cells assessed as fold increase in H3K36me3 level at 1000 nM incubated for 24 hrs by Western blot analysis relative to control; assay type: cell-based; details: KYSE-150 cell line
Target sequence in this assay (O75164 2-1064 limits assumed): as the sequence (O75164 2-1064 limits assumed) above
Target sequence in this assay (P40337 whole entry partner): as the sequence (P40337 whole entry partner) above

[17] = biological target: T1, von Hippel-Lindau disease tumor suppressor/Lysine-specific demethylase 4A; assay: PROTAC activity at VHL/KDM4A in human KYSE-150 cells assessed as induction of KDM4A degradation measured after 24 hrs by Western blot analysis; assay type: cell-based
[18] = Induction of cell cycle arrest in human KYSE-150 cells assessed as accumulation of cells at G2/M phase at 111.1 nM incubated for 24 hrs by flow cytometry (reference value: 21.64 %); assay type: functional
[19] = Induction of apoptosis in human KYSE-150 cells assessed as late apoptotic cells at 333.3 nM incubated for 72 hrs by Annexin V-PE/7-AAD staining based flow cytometry (reference value: 5.98 %); assay type: functional
[20] = Induction of apoptosis in human KYSE-150 cells assessed as necrotic cells at 37 nM incubated for 72 hrs by Annexin V-PE/7-AAD staining based flow cytometry (reference value: 4.28 %); assay type: functional
[21] = biological target: T2, von Hippel-Lindau disease tumor suppressor/Lysine-specific demethylase 4C; assay: PROTAC activity at VHL/KDM4C in human KYSE-150 cells assessed as induction of KDM4C degradation upto 1000 nM measured after 24 hrs by Western blot analysis relative to control; assay type: cell-based; details: KYSE-150 cell line
Target sequence in this assay (P40337 whole entry, looked up): as the sequence (P40337 whole entry partner) above
Target sequence in this assay (Q9H3R0 whole entry, looked up): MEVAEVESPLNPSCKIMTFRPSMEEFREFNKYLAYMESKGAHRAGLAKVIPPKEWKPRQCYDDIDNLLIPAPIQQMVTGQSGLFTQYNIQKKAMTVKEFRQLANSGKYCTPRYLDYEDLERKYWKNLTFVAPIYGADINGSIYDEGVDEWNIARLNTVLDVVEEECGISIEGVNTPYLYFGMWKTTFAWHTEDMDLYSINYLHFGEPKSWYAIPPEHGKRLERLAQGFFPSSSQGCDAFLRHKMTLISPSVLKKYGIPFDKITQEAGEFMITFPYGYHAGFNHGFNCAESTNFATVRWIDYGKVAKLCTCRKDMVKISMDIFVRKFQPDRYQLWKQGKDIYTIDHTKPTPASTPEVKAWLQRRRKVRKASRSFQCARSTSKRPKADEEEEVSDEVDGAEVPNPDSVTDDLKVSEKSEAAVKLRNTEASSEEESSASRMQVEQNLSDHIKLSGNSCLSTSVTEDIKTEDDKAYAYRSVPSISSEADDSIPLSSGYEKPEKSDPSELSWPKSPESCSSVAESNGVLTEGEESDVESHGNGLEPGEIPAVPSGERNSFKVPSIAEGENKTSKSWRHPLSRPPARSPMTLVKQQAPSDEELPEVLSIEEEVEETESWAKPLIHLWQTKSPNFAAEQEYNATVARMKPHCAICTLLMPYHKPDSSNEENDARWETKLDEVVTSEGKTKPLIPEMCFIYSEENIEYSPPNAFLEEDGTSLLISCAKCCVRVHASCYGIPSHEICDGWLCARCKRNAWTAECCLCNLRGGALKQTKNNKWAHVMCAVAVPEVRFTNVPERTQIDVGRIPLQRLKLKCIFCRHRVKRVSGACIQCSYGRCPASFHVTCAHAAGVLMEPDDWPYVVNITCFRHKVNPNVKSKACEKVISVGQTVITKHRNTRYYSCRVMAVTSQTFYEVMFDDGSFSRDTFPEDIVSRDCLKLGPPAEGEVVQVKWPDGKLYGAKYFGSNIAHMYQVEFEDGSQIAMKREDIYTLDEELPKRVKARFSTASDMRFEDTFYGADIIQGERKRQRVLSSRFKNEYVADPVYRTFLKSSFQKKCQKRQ

[22] = biological target: T1, von Hippel-Lindau disease tumor suppressor/Lysine-specific demethylase 4A; assay: PROTAC activity at VHL/KDM4A in human KYSE-150 cells assessed as induction of KDM4A degradation at 50 nM incubated for 24 hrs in presence of MLN4924 by Western blot analysis; assay type: cell-based; details: KYSE-150 cell line
Target sequence in this assay (O75164 2-1064 limits assumed): as the sequence (O75164 2-1064 limits assumed) above
Target sequence in this assay (P40337 whole entry partner): as the sequence (P40337 whole entry partner) above

[23] = biological target: T2, von Hippel-Lindau disease tumor suppressor/Lysine-specific demethylase 4C; assay: PROTAC activity at VHL/KDM4C in human KYSE-150 cells assessed as induction of KDM4C degradation upto 1000 nM by Western blot analysis; assay type: cell-based; details: KYSE-150 cell line
Target sequence in this assay (P40337 whole entry, looked up): as the sequence (P40337 whole entry partner) above
Target sequence in this assay (Q9H3R0 whole entry, looked up): as the sequence (Q9H3R0 whole entry, looked up) above

[24] = biological target: T3, von Hippel-Lindau disease tumor suppressor/Lysine-specific demethylase 4B; assay: PROTAC activity at VHL/KDM4B in human KYSE-150 cells assessed as induction of KDM4B degradation measured after 24 hrs by Western blot analysis; assay type: cell-based
[25] = Induction of cell cycle arrest in human KYSE-150 cells assessed as accumulation of cells at G0/G1 phase at 111.1 nM incubated for 24 hrs by flow cytometry (reference value: 65.08 %); assay type: functional
[26] = Induction of apoptosis in human KYSE-150 cells assessed as late apoptotic cells at 1000 nM incubated for 72 hrs by Annexin V-PE/7-AAD staining based flow cytometry (reference value: 5.98 %); assay type: functional
[27] = Induction of cell cycle arrest in human KYSE-150 cells assessed as accumulation of cells at S pahse at 37 nM incubated for 24 hrs by flow cytometry (reference value: 13.15 %); assay type: functional
[28] = Induction of cell cycle arrest in human KYSE-150 cells assessed as accumulation of cells at G0/G1 phase at 333.3 nM incubated for 24 hrs by flow cytometry (reference value: 65.08 %); assay type: functional
[29] = Induction of apoptosis in human KYSE-150 cells assessed as late apoptotic cells at 12.3 nM incubated for 72 hrs by Annexin V-PE/7-AAD staining based flow cytometry (reference value: 5.98 %); assay type: functional
[30] = biological target: T1, von Hippel-Lindau disease tumor suppressor/Lysine-specific demethylase 4A; assay: PROTAC activity at VHL/KDM4A in human KYSE-150 cells assessed as induction of KDM4A degradation upto 1000 nM measured after 24 hrs by Western blot analysis relative to control; assay type: cell-based; details: KYSE-150 cell line
Target sequence in this assay (O75164 2-1064 limits assumed): as the sequence (O75164 2-1064 limits assumed) above
Target sequence in this assay (P40337 whole entry partner): as the sequence (P40337 whole entry partner) above

Compound: Cc1ncsc1-c1ccc([C@H](C)NC(=O)[C@@H]2C[C@@H](O)CN2C(=O)[C@@H](NC(=O)CCCCCCCCCOc2ccc(N(C)c3ccc4c(c3)OCC[C@H]4CNc3cnccc3C(=O)O)cc2)C(C)(C)C)cc1
- Activity [1]: 44.9%
- Activity [2]: 14.06%
- Activity [3]: 13.1%
- Activity [4]: 13.29%
- Activity [5]: Time-dependent-effect
- Activity [6]: Active
- viability at 0.037 µM [7]: 30.6%
- Activity [8]: 26.6%
- Activity [9]: 4.83%
- Activity ([10]; KYSE-150 cell line): Dose-dependent-effect
- DC50 ([10]; kyse-150 cell line): 49.4 nM
- Activity [11]: Time-dependent-effect
- Activity [12]: 14.42%
- Activity [13]: 18.22%
- Activity [14]: 13.01%
- Activity [15]: 22.13%
- FC [16]: 2
- Activity ([17]; KYSE-150 cell line): Dose-dependent-effect
- DC50 ([17]; kyse-150 cell line): 37.5 nM
- Activity [18]: 12.48%
- Activity [19]: 48.79%
- Activity [20]: 7.7%
- Emax [21]: 77.8%
- Activity [22]: inactive
- Activity [23]: Time-dependent-effect
- Activity ([24]; KYSE-150 cell line): Dose-dependent-effect
- DC50 ([24]; kyse-150 cell line): 39.9 nM
- Activity [25]: 73.05%
- Activity [26]: 47.86%
- Activity [27]: 14.84%
- Activity [28]: 72.82%
- Activity [29]: 18.97%
- Emax [30]: 83.3%
